Test results: the supplement of paper PMC11061612

Assays:
Assay in all cases: combination Emax (second highest fraction inhibited in the dose matrix, 72 h); higher = more inhibition; extreme values may be limits of the assay
[1] = tested on: C3A (Hepatocellular Carcinoma)
In short: (§1)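 Cell lines in DMEM/F12 or RPMI with 10% FBS were plated in 1536-well plates, held 24 hours at 37°C, 5% CO2, then given two-drug dose matrices for 72 hours (DMSO typically 0.2%). Viability was read by CellTiter-Glo 2.0 luminescence and scaled as inhibition from 0 (vehicle wells) to 1 (blank wells). Combination Emax is the second-highest inhibition in the matrix; Bliss excess is observed combination effect minus expected EA + EB − EA·EB, EA and EB being single-agent effects.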

[2] = tested on: CFPAC-1 (Pancreatic Carcinoma)
In short: as §1

[3] = tested on: G-292-Clone-A141B1 (Osteosarcoma)
In short: as §1

[4] = tested on: HT-29 (Colorectal Carcinoma)
In short: as §1

IGR-1 (Melanoma) = tested on: IGR-1 (Melanoma)
In short: as §1

[5] = tested on: IHH-4 (Thyroid Gland Carcinoma)
In short: as §1

[6] = tested on: KARPAS-620 (Plasma Cell Myeloma)
In short: as §1

[7] = tested on: KATOIII (Gastric Carcinoma)
In short: as §1

[8] = tested on: MDA-MB-231 (Breast Carcinoma)
In short: as §1

[9] = tested on: NALM-6 (B-Lymphoblastic Leukemia)
In short: as §1

[10] = tested on: NCI-H1299 (Non-Small Cell Lung Carcinoma)
In short: as §1

[11] = tested on: NCI-H1694 (Small Cell Lung Carcinoma)
In short: as §1

[12] = tested on: NCI-H1793 (Lung Adenocarcinoma)
In short: as §1

NCI-H2369 (Mesothelioma) = tested on: NCI-H2369 (Mesothelioma)
In short: as §1

RH-1 (Ewing's Sarcoma) = tested on: RH-1 (Ewing's Sarcoma)
In short: as §1

SN12C (Kidney Carcinoma) = tested on: SN12C (Kidney Carcinoma)
In short: as §1

[13] = tested on: SNU-C5 (Colorectal Carcinoma)
In short: as §1

[14] = tested on: SW1088 (Low Grade Glioma)
In short: as §1

[15] = tested on: SW1783 (Low Grade Glioma)
In short: as §1

[16] = tested on: SW780 (Bladder Carcinoma)
In short: as §1

Row | Compound | combination Emax [1] | combination Emax [2] | combination Emax [3] | combination Emax [4] | combination Emax (IGR-1 (Melanoma)) | combination Emax [5] | combination Emax [6] | combination Emax [7] | combination Emax [8] | combination Emax [9] | combination Emax [10] | combination Emax [11] | combination Emax [12] | combination Emax (NCI-H2369 (Mesothelioma)) | combination Emax (RH-1 (Ewing's Sarcoma)) | combination Emax (SN12C (Kidney Carcinoma)) | combination Emax [13] | combination Emax [14] | combination Emax [15] | combination Emax [16]
1 | Cc1c2c(nn1C)CSCc1cc(n(C)n1)CSc1cc(c3ccccc3c1)OCCCc1c(C(=O)O)n(C)c3c-2c(Cl)ccc13 [AZD5991] + C[C@@H](Nc1cc(F)cc(F)c1)c1cc(C(=O)N(C)C)cc2c(=O)cc(N3CCOCC3)oc12 [AZD8186] (first compound max 1 µM, 7x7, partner max 3 µM) | 0.292 | 0.294 | 0.415 | 0.24 | 0.28 | 0.234 | 1 | 0.175 | 0.23 | 0.672 | 0.386 | 0.953 | 0.263 | 0.24 | 0.827 | 0.246 | 0.254 | 0.533 | 0.4 | 0.228
2 | CN(CCO)CC[C@H](CSc1ccccc1)Nc1ccc(S(=O)(=O)NC(=O)c2ccc(N3CCC([C@@H](O)c4ccccc4-c4ccc(Cl)cc4)CC3)cc2)cc1S(=O)(=O)C(F)(F)F [AZD4320] + C=CCn1c(=O)c2cnc(Nc3ccc(N4CCN(C)CC4)cc3)nc2n1-c1cccc(C(C)(C)O)n1 [AZD1775] (first compound max 1 µM, partner max 1 µM) | 0.631 | 0.699 | 0.559 | 0.965 | 0.934 | 0.694 | 1 | 0.206 | 0.716 | 1 | 0.88 | 0.906 | 0.449 | 0.189 | 0.986 | 0.322 | 0.619 | 0.391 | 0.531 | 0.457
3 | Cc1c2c(nn1C)CSCc1cc(n(C)n1)CSc1cc(c3ccccc3c1)OCCCc1c(C(=O)O)n(C)c3c-2c(Cl)ccc13 [AZD5991] + CN(C)CCCOc1ccc(-c2ccc3ncc4c(c3c2)n(C2CCOCC2)c(=O)n4C)cn1 [AZD0156] (first compound max 1 µM, 7x7, partner max 1 µM) | 0.198 | 0.209 | 0.332 | 0.254 | 0.327 | 0.265 | 1 | 0.182 | 0.351 | 0.408 | 0.368 | 0.98 | 0.302 | 0.208 | 0.666 | 0.222 | 0.196 | 0.242 | 0.218 | 0.206
4 | COc1nnc2ccc(N3CCC(c4ccc(OCCN5CCN(C)C(=O)[C@H]5C)cc4)CC3)nn12 [AZD5153] + CC1(C)CCC(CN2CCN(c3ccc(C(=O)NS(=O)(=O)c4ccc(NCC5CCOCC5)c([N+](=O)[O-])c4)c(Oc4cnc5[nH]ccc5c4)c3)CC2)=C(c2ccc(Cl)cc2)C1 [Venetoclax] (first compound max 1 µM, 7x7, partner max 1 µM) | 0.453 | 0.416 | 0.256 | 0.718 | 0.433 | 0.498 | 0.927 | 0.337 | 0.661 | 0.993 | 0.691 | 0.551 | 0.248 | 0.327 | 0.334 | 0.318 | 0.522 | 0.471 | 0.28 | 0.375
5 | Cc1cc2ncnn2cc1Nc1ncc2c(n1)n(C1CCOCC1)c(=O)n2C [AZD7648] + C[C@@H]1COCCN1C2=NC(=NC(=C2)C3(CC3)[S@](=N)(=O)C)C4=C5C=CNC5=NC=C4 [AZD6738] (first compound max 10 µM, 7x7, partner max 10 µM) | 0.548 | 0.356 | 0.334 | 0.808 | 0.348 | 0.756 | 0.539 | 0.407 | 0.605 | 0.932 | 0.644 | 0.659 | 0.36 | 0.25 | 0.894 | 0.313 | 0.751 | 0.671 | 0.437 | 0.303
6 | CN(C)CCCOc1ccc(-c2ccc3ncc4c(c3c2)n(C2CCOCC2)c(=O)n4C)cn1 [AZD0156] + CCN(CCO)CCCOc1ccc2c(Nc3cc(CC(=O)Nc4cccc(F)c4)[nH]n3)ncnc2c1 [AZD2811] (first compound max 1 µM, 7x7, partner max 1 µM) | 0.129 | 0.0885 | 0.111 | 0.166 | 0.135 | 0.322 | 0.693 | 0.0129 | 0.206 | 0.766 | 0.251 | 0.278 | 0.182 | 0.0791 | 0.956 | 0.12 | 0.224 | 0.364 | 0.0598 | 0.205
7 | COc1nnc2ccc(N3CCC(c4ccc(OCCN5CCN(C)C(=O)[C@H]5C)cc4)CC3)nn12 [AZD5153] + CCN(CCO)CCCOc1ccc2c(Nc3cc(CC(=O)Nc4cccc(F)c4)[nH]n3)ncnc2c1 [AZD2811] (first compound max 1 µM, 7x7, partner max 1 µM) | 0.524 | 0.394 | 0.366 | 0.72 | 0.522 | 0.682 | 0.75 | 0.31 | 0.65 | 0.938 | 0.71 | 0.364 | 0.278 | 0.344 | 0.995 | 0.394 | 0.517 | 0.519 | 0.328 | 0.339
8 | CC1(C)CCC(CN2CCN(c3ccc(C(=O)NS(=O)(=O)c4ccc(NCC5CCOCC5)c([N+](=O)[O-])c4)c(Oc4cnc5[nH]ccc5c4)c3)CC2)=C(c2ccc(Cl)cc2)C1 [Venetoclax] + C[C@@H]1COCCN1C2=NC(=NC(=C2)C3(CC3)[S@](=N)(=O)C)C4=C5C=CNC5=NC=C4 [AZD6738] (first compound max 1 µM, 7x7, partner max 10 µM) | 0.452 | 0.554 | 0.344 | 0.865 | 0.675 | 0.691 | 0.996 | 0.462 | 0.624 | 0.994 | 0.534 | 0.822 | 0.508 | 0.233 | 0.959 | 0.287 | 0.784 | 0.684 | 0.503 | 0.22
9 | Cn1cnc2c(F)c(Nc3ccc(Br)cc3Cl)c(C(=O)NOCCO)cc21 [Selumetinib] + CCN(CCO)CCCOc1ccc2c(Nc3cc(CC(=O)Nc4cccc(F)c4)[nH]n3)ncnc2c1 [AZD2811] (first compound max 10 µM, 7x7, partner max 1 µM) | 0.494 | 0.292 | 0.102 | 0.715 | 0.393 | 0.586 | 0.87 | 0.429 | 0.519 | 0.836 | 0.363 | 0.385 | 0.203 | 0.203 | 0.935 | 0.237 | 0.436 | 0.424 | 0.0665 | 0.435
10 | COc1cccc(OCCCN)c1-c1cc(Nc2cnc(C#N)cn2)n[nH]1 [Prexasertib] + C[C@@H]1COCCN1C2=NC(=NC(=C2)C3(CC3)[S@](=N)(=O)C)C4=C5C=CNC5=NC=C4 [AZD6738] (first compound max 1 µM, 7x7, partner max 10 µM) | 0.528 | 0.643 | 0.325 | 0.857 | 0.566 | 0.862 | 0.856 | 0.586 | 0.705 | 0.943 | 0.732 | 0.823 | 0.423 | 0.192 | 1 | 0.313 | 0.894 | 0.762 | 0.496 | 0.201
11 | NC1(C(=O)N[C@@H](CCO)c2ccc(Cl)cc2)CCN(c2ncnc3[nH]ccc23)CC1 [Capivasertib] + C[C@@H]1COCCN1C2=NC(=NC(=C2)C3(CC3)[S@](=N)(=O)C)C4=C5C=CNC5=NC=C4 [AZD6738] (first compound max 10 µM, 7x7, partner max 10 µM) | 0.551 | 0.567 | 0.538 | 0.834 | 0.713 | 0.859 | 0.757 | 0.438 | 0.74 | 0.984 | 0.602 | 0.682 | 0.543 | 0.338 | 0.97 | 0.261 | 0.811 | 0.707 | 0.679 | 0.284
12 | CC1(C)CCC(CN2CCN(c3ccc(C(=O)NS(=O)(=O)c4ccc(NCC5CCOCC5)c([N+](=O)[O-])c4)c(Oc4cnc5[nH]ccc5c4)c3)CC2)=C(c2ccc(Cl)cc2)C1 [Venetoclax] + COc1cc(Nc2ncc3c(n2)-c2ccc(Cl)cc2C(c2c(F)cccc2OC)=NC3)ccc1C(=O)O [Alisertib] (first compound max 1 µM, 7x7, partner max 10 µM) | 0.302 | 0.402 | 0.484 | 0.418 | 0.403 | 0.411 | 1 | 0.681 | 0.392 | 0.977 | 0.385 | 0.667 | 0.612 | 0.327 | 1 | 0.318 | 0.347 | 0.679 | 0.634 | 0.534
